PubChem BioAssay AID1919013 (Molecular Pharmacology Branch, DTP, NCI, 2023)

System: LG0703-F498-PDC complex spheroid growth
Experiment: Anticancer human tumor LG0703-F498-PDC patient-derived lung adenocarcinoma cell line growth inhibition [AhR]
Conditions: for IC50: curve of first compound; for viability, T/C: stronger effect = lower value
Outline: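 Complex tumor spheroids co-cultured with HUVEC and human MSC stroma; AhR antagonists tested in combination with standard-of-care and investigational agents. Top concentration at or near clinical Cmax (else 10 microM), half-log dilutions; growth expressed as percent test/control.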

[1] = second compound 0.1 µM, first compound 0.0316 µM
[2] = second compound 0.1 µM, first compound 0.1 µM
[3] = second compound 0.1 µM, first compound 0.316 µM
[4] = second compound 0.1 µM, first compound 1 µM
[5] = second compound 0.1 µM, first compound 3.16 µM
[6] = second compound 0.1 µM, first compound 10 µM
[7] = second compound 0.316 µM, first compound 0.0316 µM
[8] = second compound 0.316 µM, first compound 0.1 µM
[9] = second compound 0.316 µM, first compound 0.316 µM
[10] = second compound 0.316 µM, first compound 1 µM
[11] = second compound 0.316 µM, first compound 3.16 µM
[12] = second compound 0.316 µM, first compound 10 µM
[13] = second compound 1 µM, first compound 0.0316 µM
[14] = second compound 1 µM, first compound 0.1 µM
[15] = second compound 1 µM, first compound 0.316 µM
[16] = second compound 1 µM, first compound 1 µM
[17] = second compound 1 µM, first compound 3.16 µM
[18] = second compound 1 µM, first compound 10 µM
[19] = second compound 3.16 µM, first compound 0.0316 µM
[20] = second compound 3.16 µM, first compound 0.1 µM
[21] = second compound 3.16 µM, first compound 0.316 µM
[22] = second compound 3.16 µM, first compound 1 µM
[23] = second compound 3.16 µM, first compound 3.16 µM
[24] = second compound 3.16 µM, first compound 10 µM
[25] = second compound 10 µM, first compound 0.0316 µM
[26] = second compound 10 µM, first compound 0.1 µM
[27] = second compound 10 µM, first compound 0.316 µM
[28] = second compound 10 µM, first compound 1 µM
[29] = second compound 10 µM, first compound 3.16 µM
[30] = second compound 10 µM, first compound 10 µM
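Note: luminescence taken as a proxy for viable cell amount.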
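Throughout, for viability, T/C: percent of DMSO vehicle control where 100% means growth equal to vehicle.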

Q: With CC1(C)CCC(CN2CCN(c3ccc(C(=O)NS(=O)(=O)c4ccc(NCC5CCOCC5)c([N+](=O)[O-])c4)c(Oc4cnc5[nH]ccc5c4)c3)CC2)=C(c2ccc(Cl)cc2)C1 + Cc1cncc(-c2nc(NCCc3c[nH]c4ccccc34)c3ncn(C(C)C)c3n2)c1 as the compound, how does the IC50 (second compound 0.1 µM) read?
A: The IC50 was 8.32 µM.

Q: And the IC50 (second compound 0.316 µM)?
A: The IC50 was 7.1 µM.

Q: And the IC50 (second compound 1 µM)?
A: The IC50 was 7.97 µM.

Q: And the IC50 (second compound 3.16 µM)?
A: Its IC50 is 0.0316 µM.

Q: What about the IC50 (second compound 10 µM) of the same compound?
A: Its IC50 is under 0.0316 µM.

Q: And the viability, T/C [1]?
A: Its viability, T/C is 112%.

Q: And the viability, T/C [2]?
A: Its viability, T/C is 96.1%.

Q: And the viability, T/C [3]?
A: Its viability, T/C is 106%.

Q: What about the viability, T/C [4] of the same compound?
A: The viability, T/C was 97%.

Q: What about the viability, T/C [5] of the same compound?
A: Its viability, T/C is 87.8%.

Q: What about the viability, T/C [6] of the same compound?
A: Its viability, T/C is 42.5%.

Q: And the viability, T/C [7]?
A: The viability, T/C was 120%.

Q: And the viability, T/C [8]?
A: The viability, T/C was 88%.

Q: What about the viability, T/C [9] of the same compound?
A: The viability, T/C was 101%.

Q: And the viability, T/C [10]?
A: Its viability, T/C is 92.7%.

Q: And the viability, T/C [11]?
A: The viability, T/C was 88.4%.

Q: And the viability, T/C [12]?
A: Its viability, T/C is 34.3%.

Q: And the viability, T/C [13]?
A: Its viability, T/C is 116%.

Q: And the viability, T/C [14]?
A: Its viability, T/C is 113%.

Q: What about the viability, T/C [15] of the same compound?
A: The viability, T/C was 95%.

Q: What about the viability, T/C [16] of the same compound?
A: The viability, T/C was 103%.

Q: And the viability, T/C [17]?
A: The viability, T/C was 97.7%.

Q: And the viability, T/C [18]?
A: The viability, T/C was 37.8%.

Q: And the viability, T/C [19]?
A: Its viability, T/C is 48%.

Q: And the viability, T/C [20]?
A: Its viability, T/C is 49.5%.

Q: What about the viability, T/C [21] of the same compound?
A: Its viability, T/C is 54.6%.

Q: And the viability, T/C [22]?
A: The viability, T/C was 43.3%.

Q: What about the viability, T/C [23] of the same compound?
A: The viability, T/C was 52.1%.

Q: And the viability, T/C [24]?
A: Its viability, T/C is 24.7%.

Q: What about the viability, T/C [25] of the same compound?
A: Its viability, T/C is 1.31%.

Q: And the viability, T/C [26]?
A: The viability, T/C was 1.08%.

Q: And the viability, T/C [27]?
A: Its viability, T/C is 1.56%.

Q: And the viability, T/C [28]?
A: Its viability, T/C is 1.25%.

Q: What about the viability, T/C [29] of the same compound?
A: The viability, T/C was 1.72%.

Q: What about the viability, T/C [30] of the same compound?
A: The viability, T/C was 4.35%.

Q: Which IC50 (second compound 0.1 µM) does the source give for CC1COCCN1c1cc(C2(S(C)(=N)=O)CC2)nc(-c2ccnc3[nH]ccc23)n1 (stereo not given) + Cc1cncc(-c2nc(NCCc3c[nH]c4ccccc34)c3ncn(C(C)C)c3n2)c1 here?
A: Its IC50 is over 10 µM.

Q: And the IC50 (second compound 0.316 µM)?
A: Its IC50 is over 10 µM.

Q: And the IC50 (second compound 1 µM)?
A: The IC50 was 9.33 µM.

Q: What about the IC50 (second compound 3.16 µM) of the same compound?
A: The IC50 was under 0.0316 µM.

Q: And the IC50 (second compound 10 µM)?
A: Its IC50 is under 0.0316 µM.

Q: And the viability, T/C [1]?
A: Its viability, T/C is 107%.

Q: And the viability, T/C [2]?
A: The viability, T/C was 104%.

Q: And the viability, T/C [3]?
A: Its viability, T/C is 92.5%.

Q: And the viability, T/C [4]?
A: Its viability, T/C is 96.4%.

Q: What about the viability, T/C [5] of the same compound?
A: Its viability, T/C is 97.2%.

Q: What about the viability, T/C [6] of the same compound?
A: Its viability, T/C is 59.2%.

Q: What about the viability, T/C [7] of the same compound?
A: The viability, T/C was 92.4%.

Q: And the viability, T/C [8]?
A: The viability, T/C was 110%.

Q: And the viability, T/C [9]?
A: Its viability, T/C is 105%.

Q: What about the viability, T/C [10] of the same compound?
A: Its viability, T/C is 110%.

Q: What about the viability, T/C [11] of the same compound?
A: Its viability, T/C is 89.7%.

Q: What about the viability, T/C [12] of the same compound?
A: The viability, T/C was 54.5%.

Q: What about the viability, T/C [13] of the same compound?
A: The viability, T/C was 107%.

Q: What about the viability, T/C [14] of the same compound?
A: The viability, T/C was 91.2%.

Q: What about the viability, T/C [15] of the same compound?
A: The viability, T/C was 101%.

Q: What about the viability, T/C [16] of the same compound?
A: The viability, T/C was 94.8%.

Q: And the viability, T/C [17]?
A: Its viability, T/C is 89.9%.

Q: What about the viability, T/C [18] of the same compound?
A: The viability, T/C was 46.9%.

Q: And the viability, T/C [19]?
A: Its viability, T/C is 18%.

Q: And the viability, T/C [20]?
A: Its viability, T/C is 18.5%.

Q: What about the viability, T/C [21] of the same compound?
A: The viability, T/C was 25%.

Q: What about the viability, T/C [22] of the same compound?
A: The viability, T/C was 17.1%.

Q: And the viability, T/C [23]?
A: The viability, T/C was 13.5%.

Q: And the viability, T/C [24]?
A: The viability, T/C was 8.17%.

Q: And the viability, T/C [25]?
A: The viability, T/C was 1.76%.

Q: And the viability, T/C [26]?
A: The viability, T/C was 1.78%.

Q: What about the viability, T/C [27] of the same compound?
A: The viability, T/C was 1.04%.

Q: What about the viability, T/C [28] of the same compound?
A: Its viability, T/C is 1.58%.

Q: And the viability, T/C [29]?
A: The viability, T/C was 0.93%.

Q: And the viability, T/C [30]?
A: The viability, T/C was 1.14%.
